Values of other authors as cited in article PMC9603901, “Therapeutic Potential of Antimicrobial Peptide PN5 against Multidrug-Resistant E. coli and Anti-Inflammatory Activity in a Septic Mouse Model” (Microbiology Spectrum, 2022).
≈ marks a conversion by molar mass, not a printed value.

What was measured:
Design in all cases: method as in Asan hospital; key to susceptibility category: S: susceptible; R: resistant; I: intermediate
MDR E. coli ASEC 1 = details: ref Asan hospital, cited from earlier work; for MIC: ASEC 1 (carbapenemase NDM-1), resistance information of clinical isolate; for susceptibility category: ASEC 1
MDR E. coli ASEC 2 = details: ref Asan hospital, cited from earlier work; for MIC: ASEC 2 (NDM-7), resistance information of clinical isolate; for susceptibility category: ASEC 2
MDR E. coli ASEC 3 = details: ref Asan hospital, cited from earlier work; for MIC: ASEC 3 (NDM-5), resistance information of clinical isolate; for susceptibility category: ASEC 3
MDR E. coli ASEC 4 = details: ref Asan hospital, cited from earlier work; for MIC: ASEC 4 (ESBL), resistance information of clinical isolate; for susceptibility category: ASEC 4
MDR E. coli ASEC 5 = details: ref Asan hospital, cited from earlier work; for MIC: ASEC 5 (ESBL), resistance information of clinical isolate; for susceptibility category: ASEC 5
MDR E. coli ASEC 6 = details: ref Asan hospital, cited from earlier work; for MIC: ASEC 6 (ESBL), resistance information of clinical isolate; for susceptibility category: ASEC 6
MDR E. coli ASEC 7 = details: ref Asan hospital, cited from earlier work; for MIC: ASEC 7 (ESBL), resistance information of clinical isolate; for susceptibility category: ASEC 7
MDR E. coli ASEC 8 = details: ref Asan hospital, cited from earlier work; for MIC: ASEC 8 (ESBL), resistance information of clinical isolate; for susceptibility category: ASEC 8
MDR E. coli ASEC 9 = details: ref Asan hospital, cited from earlier work; for MIC: ASEC 9 (ESBL), resistance information of clinical isolate; for susceptibility category: ASEC 9
MDR E. coli ASEC 10 = details: ref Asan hospital, cited from earlier work; for MIC: ASEC 10 (ESBL), resistance information of clinical isolate; for susceptibility category: ASEC 10
MDR E. coli ASEC 11 = details: ref Asan hospital, cited from earlier work; for MIC: ASEC 11 (ESBL), resistance information of clinical isolate; for susceptibility category: ASEC 11
MDR E. coli ASEC 12 = details: ref Asan hospital, cited from earlier work; for MIC: ASEC 12 (AmpC), resistance information of clinical isolate; for susceptibility category: ASEC 12
MDR E. coli ASEC 13 = details: ref Asan hospital, cited from earlier work; for MIC: ASEC 13 (AmpC), resistance information of clinical isolate; for susceptibility category: ASEC 13
MDR E. coli ASEC 14 = details: ref Asan hospital, cited from earlier work; for MIC: ASEC 14 (AmpC), resistance information of clinical isolate; for susceptibility category: ASEC 14
MDR E. coli ASEC 15 = details: ref Asan hospital, cited from earlier work; for MIC: ASEC 15 (AmpC), resistance information of clinical isolate; for susceptibility category: ASEC 15
MDR E. coli ASEC 16 = details: ref Asan hospital, cited from earlier work; for MIC: ASEC 16 (AmpC), resistance information of clinical isolate; for susceptibility category: ASEC 16
MDR E. coli ASEC 17 = details: ref Asan hospital, cited from earlier work; for MIC: ASEC 17 (AmpC), resistance information of clinical isolate; for susceptibility category: ASEC 17
MDR E. coli ASEC 18 = details: ref Asan hospital, cited from earlier work; for MIC: ASEC 18 (AmpC), resistance information of clinical isolate; for susceptibility category: ASEC 18
MDR E. coli ASEC 19 = details: ref Asan hospital, cited from earlier work; for MIC: ASEC 19 (AmpC), resistance information of clinical isolate; for susceptibility category: ASEC 19

Compound	MIC (MDR E. coli ASEC 1)	susceptibility category (MDR E. coli ASEC 1)	MIC (MDR E. coli ASEC 2) [µg/mL]	susceptibility category (MDR E. coli ASEC 2)	MIC (MDR E. coli ASEC 3) [µg/mL]	susceptibility category (MDR E. coli ASEC 3)	MIC (MDR E. coli ASEC 4) [µg/mL]	susceptibility category (MDR E. coli ASEC 4)	MIC (MDR E. coli ASEC 5) [µg/mL]	susceptibility category (MDR E. coli ASEC 5)	MIC (MDR E. coli ASEC 6) [µg/mL]	susceptibility category (MDR E. coli ASEC 6)	MIC (MDR E. coli ASEC 7)	susceptibility category (MDR E. coli ASEC 7)	MIC (MDR E. coli ASEC 8)	susceptibility category (MDR E. coli ASEC 8)	MIC (MDR E. coli ASEC 12) [µg/mL]	susceptibility category (MDR E. coli ASEC 12)	MIC (MDR E. coli ASEC 13) [µg/mL]	susceptibility category (MDR E. coli ASEC 13)	other results
CO[C@@]1(NC(=O)Cc2cccs2)C(=O)N2C(C(=O)O)=C(COC(N)=O)CS[C@@H]21 [Cefoxitin]	> 16 µg/mL	R	> 16	R	> 16	R	> 16	R	> 16	R	> 16	R	<= 8 μg mL-1	S	<= 8 μg mL-1	S	> 16	R	> 16	R	MIC (MDR E. coli ASEC 9): 16 µg/mL (≈ 37.4 µM); susceptibility category (MDR E. coli ASEC 9): I; MIC (MDR E. coli ASEC 10): <= 8 μg mL-1; susceptibility category (MDR E. coli ASEC 10): S; MIC (MDR E. coli ASEC 11): <= 8 μg mL-1; susceptibility category (MDR E. coli ASEC 11): S; MIC (MDR E. coli ASEC 14): > 16 µg/mL; susceptibility category (MDR E. coli ASEC 14): R; MIC (MDR E. coli ASEC 15): > 16 µg/mL; susceptibility category (MDR E. coli ASEC 15): R; MIC (MDR E. coli ASEC 16): > 16 µg/mL; susceptibility category (MDR E. coli ASEC 16): R; MIC (MDR E. coli ASEC 17): > 16 µg/mL; susceptibility category (MDR E. coli ASEC 17): R; MIC (MDR E. coli ASEC 18): > 16 µg/mL; susceptibility category (MDR E. coli ASEC 18): R; MIC (MDR E. coli ASEC 19): > 16 µg/mL; susceptibility category (MDR E. coli ASEC 19): R
CO/N=C(\C(=O)N[C@@H]1C(=O)N2C(C(=O)O)=C(CSc3nc(=O)c(=O)[nH]n3C)CS[C@H]12)c1csc(N)n1 [Ceftriaxone]	> 32 µg/mL	R					> 32	R	> 32	R	> 32	R					> 32	R	> 32	R	
C[C@@H](O)[C@H]1C(=O)N2C(C(=O)O)=C(SCCN=CN)C[C@H]12 [Imipenem]	<= 4 μg mL-1	R	8 (≈ 26.7 µM)	R	> 8	R	> 8	R	> 8	R	> 8	R	<= 1 μg mL-1	S	<= 1 μg mL-1	S	> 8	R	> 8	R	MIC (MDR E. coli ASEC 9): <= 1 μg mL-1; susceptibility category (MDR E. coli ASEC 9): S; MIC (MDR E. coli ASEC 10): <= 1 μg mL-1; susceptibility category (MDR E. coli ASEC 10): S; MIC (MDR E. coli ASEC 11): <= 1 μg mL-1; susceptibility category (MDR E. coli ASEC 11): S; MIC (MDR E. coli ASEC 14): 8 µg/mL (≈ 26.7 µM); susceptibility category (MDR E. coli ASEC 14): R; MIC (MDR E. coli ASEC 15): <= 1 μg mL-1; susceptibility category (MDR E. coli ASEC 15): S; MIC (MDR E. coli ASEC 16): <= 1 μg mL-1; susceptibility category (MDR E. coli ASEC 16): S; MIC (MDR E. coli ASEC 17): <= 1 μg mL-1; susceptibility category (MDR E. coli ASEC 17): S; MIC (MDR E. coli ASEC 18): <= 1 μg mL-1; susceptibility category (MDR E. coli ASEC 18): S; MIC (MDR E. coli ASEC 19): <= 1 μg mL-1; susceptibility category (MDR E. coli ASEC 19): S
